Laboratory results reported in ChEMBL document CHEMBL1932947, “Emodin inhibits migration and invasion of DLD-1 (PRL-3) cells via inhibition of PRL-3 phosphatase activity” (Bioorg Med Chem Lett, 2012).
The source made the active and inactive calls. The calls are words filed in the database; no cut-off is given here.

Tests used:
[1] = target: T1, Protein tyrosine phosphatase type IVA 3 (Homo sapiens, UniProt O75365); test: Inhibition of PRL-3-mediated cell invasion in human DLD1 cells after 20 hrs using crystal violet staining by Matrigel invasion assay; type: cell-based; details: DLD-1
[2] = target: T1, Protein tyrosine phosphatase type IVA 3; test: Inhibition of PRL-3-mediated cell migration in human DLD1 cells after 15 hrs by crystal violet staining based microscopic assay; details: DLD-1
DLD-1 = test: Cytotoxicity against human DLD1 cells expressing PRL-3 assessed as inhibition of cell proliferation up to 50 uM after 24 hrs by WST-1 assay; type: cell-based; details: dld-1, 24 h
[3] = target: T1, Protein tyrosine phosphatase type IVA 3; test: Inhibition of PRL-3-mediated cell invasion in human DLD1 cells at 40 uM after 20 hrs using crystal violet staining by Matrigel invasion assay; type: cell-based; details: DLD-1
[4] = target: T1, Protein tyrosine phosphatase type IVA 3; test: Inhibition of PRL3-mediated ezrin phosphorylation in human DLD1 cells assessed as increase in alpha-ERM-Thr567 phosphorylation at 10 to 40 uM after 15 hrs by chemiluminescence method relative to control; type: cell-based; details: DLD-1
[5] = target: T1, Protein tyrosine phosphatase type IVA 3; test: Inhibition of PRL-3-mediated cell migration in human DLD1 cells at 40 uM after 15 hrs by crystal violet staining based microscopic assay; details: DLD-1
[6] = target: T1, Protein tyrosine phosphatase type IVA 3; test: Inhibition of PRL3 after 1 hr by DiFMUP assay
Ezrin (Homo sapiens) = Ezrin (Homo sapiens) (UniProt P15311); test: Inhibition of ezrin phosphorylation in human DLD1 cells assessed as increase in alpha-ERM-Thr567 phosphorylation at 10 to 40 uM after 15 hrs by chemiluminescence method; type: cell-based; details: DLD-1
Sequence of Ezrin (Homo sapiens) (P15311 whole entry): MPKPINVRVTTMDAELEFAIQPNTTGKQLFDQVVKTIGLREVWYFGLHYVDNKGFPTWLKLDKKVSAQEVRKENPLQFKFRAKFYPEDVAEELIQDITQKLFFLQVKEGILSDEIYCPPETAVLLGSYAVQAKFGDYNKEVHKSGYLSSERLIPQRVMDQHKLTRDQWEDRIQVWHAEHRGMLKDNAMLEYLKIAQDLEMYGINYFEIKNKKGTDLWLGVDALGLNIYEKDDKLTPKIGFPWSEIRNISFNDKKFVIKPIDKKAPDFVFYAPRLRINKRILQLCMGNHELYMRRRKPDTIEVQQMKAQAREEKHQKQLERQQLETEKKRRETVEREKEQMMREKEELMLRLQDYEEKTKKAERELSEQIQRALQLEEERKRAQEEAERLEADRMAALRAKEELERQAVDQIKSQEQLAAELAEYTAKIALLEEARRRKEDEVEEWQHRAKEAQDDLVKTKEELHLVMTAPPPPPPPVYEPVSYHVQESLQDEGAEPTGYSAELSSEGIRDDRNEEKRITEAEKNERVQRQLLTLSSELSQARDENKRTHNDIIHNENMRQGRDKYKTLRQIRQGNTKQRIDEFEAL

T1 sequence (O75365 whole entry): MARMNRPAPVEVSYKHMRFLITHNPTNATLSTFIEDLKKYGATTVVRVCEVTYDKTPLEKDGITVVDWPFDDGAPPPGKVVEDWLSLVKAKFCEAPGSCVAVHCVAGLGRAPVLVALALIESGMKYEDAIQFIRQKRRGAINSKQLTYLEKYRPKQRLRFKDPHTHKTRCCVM

In the case of `Cc1cc(O)c2c(c1)C(=O)c1cc(O)cc(O)c1C2=O` [EMODIN], the inhibition [1] is reported as “Dose-dependent effect”, the inhibition [2] is reported as “Dose-dependent effect” and the Activity (DLD-1) is reported as “Non-toxic”. For the same compound, the inhibition [3] was 70%, the inhibition [4] was “Active” and the inhibition [5] was > 80%. For the same compound, the IC50 [6] was 3.5 µM, the inhibition [6] was “Dose-dependent effect” and the inhibition (Ezrin (Homo sapiens)) was “inactive”.
